According to ChEMBL document CHEMBL4431353, “Optimization of a Series of Bivalent Triazolopyridazine Based Bromodomain and Extraterminal Inhibitors: The Discovery of (3R)-4-[2-[4-[1-(3-Methoxy-[1,2,4]triazolo[4,3-b]pyridazin-6-yl)-4-piperidyl]phenoxy]ethyl]-1,3-dimethyl-piperazin-2-one (AZD5153)” (J Med Chem, 2016):
In brackets after ≈: the same amount, converted by molar mass.

Assays:
[1] = molecular target: T1, Bromodomain-containing protein 4 (Homo sapiens, UniProt O60885); assay: Displacement of Alexa647-labeled JQ1 derivative from wild type BRD4 tandem domain (44 to 460 residues) (unknown origin) incubated for 1 hr by fluorescence polarization assay
[2] = molecular target: T1, Bromodomain-containing protein 4; assay: Inhibition of BRD4 in human LNCAP cells assessed as down regulation of nuclear AR level by immunofluorescence assay; format: cell-based
[3] = molecular target: T1, Bromodomain-containing protein 4; assay: Inhibition of BRD4 in human MCF7 cells assessed as down regulation of ERalpha after 18 to 24 hrs by Hoechst staining based cellomics arrayscan analysis; format: cell-based
[4] = molecular target: T1, Bromodomain-containing protein 4; assay: Inhibition of BRD4 in human MM1S cells assessed as down regulation of c-Myc incubated for 16 hrs by flow cytometry; format: cell-based
MM1.S = assay: Growth inhibition of human MM1S cells after 72 hrs by alamar blue assay; format: functional
[5] = Lipophilicity, log D of compound at pH 7.4; format: physicochemical; conditions: buffer
[6] = Thermodynamic solubility of compound in pH 7.4 solution; format: physicochemical; conditions: buffer, read-out: Therm_solubility
[7] = Intrinsic clearance in human hepatocytes assessed per million cells; format: ADME, cell-based, Hepatocyte; conditions: read-out: CLH
[8] = Apparent permeability from apical to basolateral side in human Caco2 cells; format: ADME, cell-based; conditions: Caco-2
[9] = Unbound fraction in rat plasma; format: ADME, cell-free
[10] = Unbound fraction in dog plasma; format: ADME, cell-free, Canis lupus familiaris
[11] = Unbound fraction in human plasma; format: ADME, cell-free
[12] = Intrinsic clearance in dog hepatocytes assessed per million cells; format: ADME, cell-based, Canis lupus familiaris, Hepatocyte; conditions: read-out: CLH
[13] = Intrinsic clearance in rat hepatocytes assessed per million cells; format: ADME, cell-based, Hepatocyte; conditions: read-out: CLH
[14] = molecular target: Transcription initiation factor TFIID subunit 1 (Homo sapiens, UniProt P21675); assay: Inhibition of human TAF1 bromodomain 2 expressed in bacterial expression system
[15] = Plasma clearance in rat; format: ADME
[16] = Volume of distribution at steady state in rat; format: ADME; conditions: in vivo, read-out: Vdss
[17] = Oral bioavailability in rat; format: ADME, organism-based; conditions: in vivo
[18] = Plasma clearance in dog; format: ADME, Canis lupus familiaris
[19] = Volume of distribution at steady state in dog; format: ADME, Canis lupus familiaris; conditions: in vivo, read-out: Vdss
[20] = Oral bioavailability in dog; format: ADME, organism-based, Canis lupus familiaris; conditions: in vivo
Mus musculus = assay: In vivo inhibition of BRD4 in SCID mouse xenografted with human MV4-11 cells assessed as free plasma concentration required to decrease c-Myc expression in tumor at 10 mg/kg, po administered as single dose measured after 8 hrs by qPCR method; format: functional
MV4-11 = assay: Antitumor activity against human MV4-11 cells xenografted in SCID mouse assessed as tumor growth inhibition at 10 mg/kg, po administered daily through oral gavage for 14 days measured twice per week during compound dosing relative to control; format: functional; conditions: MV4-11, po, 336 h, read-out: TGI
[21] = Toxicity in SCID mouse xenografted with human MV4-11 cells assessed as body weight loss at 10 mg/kg, po administered daily through oral gavage for 14 days relative to control; format: organism-based; conditions: in vivo, 336 h
[22] = Metabolic stability in hepatic microsomes; format: ADME, Liver, Microsome
[23] = molecular target: T2, Bromodomain-containing protein 2 (Homo sapiens, UniProt P25440); assay: Inhibition of human BRD2 bromodomain 1 expressed in bacterial expression system
[24] = molecular target: T3, Bromodomain-containing protein 3 (Homo sapiens, UniProt Q15059); assay: Inhibition of human BRD3 bromodomain 1 expressed in bacterial expression system
[25] = molecular target: T1, Bromodomain-containing protein 4; assay: Inhibition of human BRD4 bromodomain 1 expressed in bacterial expression system
[26] = molecular target: T4, Bromodomain testis-specific protein (Homo sapiens, UniProt Q58F21); assay: Inhibition of human BRDT bromodomain 1 expressed in bacterial expression system
[27] = molecular target: T1, Bromodomain-containing protein 4; assay: Inhibition of human BRD4 bromodomain 2 expressed in bacterial expression system
[28] = molecular target: T2, Bromodomain-containing protein 2; assay: Inhibition of human BRD2 bromodomain 2 expressed in bacterial expression system
[29] = molecular target: T4, Bromodomain testis-specific protein; assay: Inhibition of human BRDT bromodomain 2 expressed in bacterial expression system
[30] = molecular target: T3, Bromodomain-containing protein 3; assay: Inhibition of human BRD3 bromodomain 2 expressed in bacterial expression system
[31] = molecular target: T5, Bromodomain-containing protein 9 (Homo sapiens, UniProt Q9H8M2); assay: Inhibition of human BRD9 expressed in bacterial expression system
T5 sequence (Q9H8M2 whole entry): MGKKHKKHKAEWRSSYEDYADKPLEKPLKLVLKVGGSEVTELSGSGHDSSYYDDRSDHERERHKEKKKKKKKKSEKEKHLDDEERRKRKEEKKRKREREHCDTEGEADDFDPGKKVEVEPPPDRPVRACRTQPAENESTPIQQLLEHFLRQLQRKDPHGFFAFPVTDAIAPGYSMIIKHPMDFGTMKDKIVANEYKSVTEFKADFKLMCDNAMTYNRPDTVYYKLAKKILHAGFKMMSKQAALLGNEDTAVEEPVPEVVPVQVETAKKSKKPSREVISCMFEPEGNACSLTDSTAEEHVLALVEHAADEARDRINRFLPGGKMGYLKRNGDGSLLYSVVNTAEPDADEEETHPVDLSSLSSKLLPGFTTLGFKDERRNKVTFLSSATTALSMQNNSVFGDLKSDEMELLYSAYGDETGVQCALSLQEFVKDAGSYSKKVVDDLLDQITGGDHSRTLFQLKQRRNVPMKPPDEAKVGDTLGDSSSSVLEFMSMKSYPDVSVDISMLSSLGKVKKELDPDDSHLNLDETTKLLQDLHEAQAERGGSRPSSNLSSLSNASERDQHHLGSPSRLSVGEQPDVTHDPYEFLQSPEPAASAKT

CREB-binding protein = CREB-binding protein (Homo sapiens, UniProt Q92793); assay: Inhibition of human CREBBP expressed in bacterial expression system
[32] = molecular target: Histone acetyltransferase p300 (Homo sapiens, UniProt Q09472); assay: Inhibition of human EP300 expressed in bacterial expression system
[33] = molecular target: Transcription initiation factor TFIID subunit 1-like (Homo sapiens, UniProt Q8IZX4); assay: Inhibition of human TAF1L bromodomain 2 expressed in bacterial expression system
[34] = molecular target: Bromodomain-containing protein 4 (Homo sapiens, UniProt O60885, N140A)
[35] = molecular target: Bromodomain-containing protein 4 (Homo sapiens, UniProt O60885, N433A)

T3 sequence (Q15059 whole entry): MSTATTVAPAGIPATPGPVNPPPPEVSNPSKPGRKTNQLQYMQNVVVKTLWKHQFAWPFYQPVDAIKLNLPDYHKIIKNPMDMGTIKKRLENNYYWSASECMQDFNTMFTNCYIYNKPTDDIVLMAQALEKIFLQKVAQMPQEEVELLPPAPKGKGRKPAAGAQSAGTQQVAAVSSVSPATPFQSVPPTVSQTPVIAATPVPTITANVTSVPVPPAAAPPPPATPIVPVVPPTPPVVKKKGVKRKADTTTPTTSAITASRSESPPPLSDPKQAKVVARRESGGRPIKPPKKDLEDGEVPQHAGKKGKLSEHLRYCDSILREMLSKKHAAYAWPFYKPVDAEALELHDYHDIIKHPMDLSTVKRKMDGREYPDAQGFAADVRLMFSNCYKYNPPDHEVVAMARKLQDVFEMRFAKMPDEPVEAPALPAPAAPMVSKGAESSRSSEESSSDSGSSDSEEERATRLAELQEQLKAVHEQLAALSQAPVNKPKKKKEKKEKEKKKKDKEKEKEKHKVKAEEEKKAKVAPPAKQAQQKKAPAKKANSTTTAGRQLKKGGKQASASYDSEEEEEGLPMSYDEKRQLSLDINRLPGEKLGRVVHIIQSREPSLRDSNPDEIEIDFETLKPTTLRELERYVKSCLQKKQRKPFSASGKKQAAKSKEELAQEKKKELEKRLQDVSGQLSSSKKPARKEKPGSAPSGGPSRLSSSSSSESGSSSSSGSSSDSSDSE
T2 sequence (P25440 whole entry): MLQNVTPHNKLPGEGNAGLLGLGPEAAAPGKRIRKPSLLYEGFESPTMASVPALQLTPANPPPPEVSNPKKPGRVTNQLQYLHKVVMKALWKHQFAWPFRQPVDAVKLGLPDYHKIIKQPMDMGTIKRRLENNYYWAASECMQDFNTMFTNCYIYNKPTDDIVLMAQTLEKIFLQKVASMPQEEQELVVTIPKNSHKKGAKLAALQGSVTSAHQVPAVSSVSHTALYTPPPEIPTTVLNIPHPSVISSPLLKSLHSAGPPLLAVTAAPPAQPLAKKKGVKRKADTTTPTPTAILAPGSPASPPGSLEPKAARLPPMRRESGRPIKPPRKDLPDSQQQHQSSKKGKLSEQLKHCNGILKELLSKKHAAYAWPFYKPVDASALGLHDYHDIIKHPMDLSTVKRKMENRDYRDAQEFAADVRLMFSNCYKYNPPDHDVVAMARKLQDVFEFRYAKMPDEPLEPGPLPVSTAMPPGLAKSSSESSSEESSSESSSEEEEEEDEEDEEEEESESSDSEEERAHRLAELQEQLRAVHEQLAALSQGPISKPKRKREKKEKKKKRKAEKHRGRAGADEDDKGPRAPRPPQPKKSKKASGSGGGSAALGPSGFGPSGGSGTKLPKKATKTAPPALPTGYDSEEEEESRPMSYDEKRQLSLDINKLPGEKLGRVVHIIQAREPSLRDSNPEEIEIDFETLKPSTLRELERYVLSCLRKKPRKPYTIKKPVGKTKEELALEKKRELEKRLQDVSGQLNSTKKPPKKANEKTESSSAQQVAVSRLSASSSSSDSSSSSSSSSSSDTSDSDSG
Histone acetyltransferase p300, sequence (Q09472 whole entry): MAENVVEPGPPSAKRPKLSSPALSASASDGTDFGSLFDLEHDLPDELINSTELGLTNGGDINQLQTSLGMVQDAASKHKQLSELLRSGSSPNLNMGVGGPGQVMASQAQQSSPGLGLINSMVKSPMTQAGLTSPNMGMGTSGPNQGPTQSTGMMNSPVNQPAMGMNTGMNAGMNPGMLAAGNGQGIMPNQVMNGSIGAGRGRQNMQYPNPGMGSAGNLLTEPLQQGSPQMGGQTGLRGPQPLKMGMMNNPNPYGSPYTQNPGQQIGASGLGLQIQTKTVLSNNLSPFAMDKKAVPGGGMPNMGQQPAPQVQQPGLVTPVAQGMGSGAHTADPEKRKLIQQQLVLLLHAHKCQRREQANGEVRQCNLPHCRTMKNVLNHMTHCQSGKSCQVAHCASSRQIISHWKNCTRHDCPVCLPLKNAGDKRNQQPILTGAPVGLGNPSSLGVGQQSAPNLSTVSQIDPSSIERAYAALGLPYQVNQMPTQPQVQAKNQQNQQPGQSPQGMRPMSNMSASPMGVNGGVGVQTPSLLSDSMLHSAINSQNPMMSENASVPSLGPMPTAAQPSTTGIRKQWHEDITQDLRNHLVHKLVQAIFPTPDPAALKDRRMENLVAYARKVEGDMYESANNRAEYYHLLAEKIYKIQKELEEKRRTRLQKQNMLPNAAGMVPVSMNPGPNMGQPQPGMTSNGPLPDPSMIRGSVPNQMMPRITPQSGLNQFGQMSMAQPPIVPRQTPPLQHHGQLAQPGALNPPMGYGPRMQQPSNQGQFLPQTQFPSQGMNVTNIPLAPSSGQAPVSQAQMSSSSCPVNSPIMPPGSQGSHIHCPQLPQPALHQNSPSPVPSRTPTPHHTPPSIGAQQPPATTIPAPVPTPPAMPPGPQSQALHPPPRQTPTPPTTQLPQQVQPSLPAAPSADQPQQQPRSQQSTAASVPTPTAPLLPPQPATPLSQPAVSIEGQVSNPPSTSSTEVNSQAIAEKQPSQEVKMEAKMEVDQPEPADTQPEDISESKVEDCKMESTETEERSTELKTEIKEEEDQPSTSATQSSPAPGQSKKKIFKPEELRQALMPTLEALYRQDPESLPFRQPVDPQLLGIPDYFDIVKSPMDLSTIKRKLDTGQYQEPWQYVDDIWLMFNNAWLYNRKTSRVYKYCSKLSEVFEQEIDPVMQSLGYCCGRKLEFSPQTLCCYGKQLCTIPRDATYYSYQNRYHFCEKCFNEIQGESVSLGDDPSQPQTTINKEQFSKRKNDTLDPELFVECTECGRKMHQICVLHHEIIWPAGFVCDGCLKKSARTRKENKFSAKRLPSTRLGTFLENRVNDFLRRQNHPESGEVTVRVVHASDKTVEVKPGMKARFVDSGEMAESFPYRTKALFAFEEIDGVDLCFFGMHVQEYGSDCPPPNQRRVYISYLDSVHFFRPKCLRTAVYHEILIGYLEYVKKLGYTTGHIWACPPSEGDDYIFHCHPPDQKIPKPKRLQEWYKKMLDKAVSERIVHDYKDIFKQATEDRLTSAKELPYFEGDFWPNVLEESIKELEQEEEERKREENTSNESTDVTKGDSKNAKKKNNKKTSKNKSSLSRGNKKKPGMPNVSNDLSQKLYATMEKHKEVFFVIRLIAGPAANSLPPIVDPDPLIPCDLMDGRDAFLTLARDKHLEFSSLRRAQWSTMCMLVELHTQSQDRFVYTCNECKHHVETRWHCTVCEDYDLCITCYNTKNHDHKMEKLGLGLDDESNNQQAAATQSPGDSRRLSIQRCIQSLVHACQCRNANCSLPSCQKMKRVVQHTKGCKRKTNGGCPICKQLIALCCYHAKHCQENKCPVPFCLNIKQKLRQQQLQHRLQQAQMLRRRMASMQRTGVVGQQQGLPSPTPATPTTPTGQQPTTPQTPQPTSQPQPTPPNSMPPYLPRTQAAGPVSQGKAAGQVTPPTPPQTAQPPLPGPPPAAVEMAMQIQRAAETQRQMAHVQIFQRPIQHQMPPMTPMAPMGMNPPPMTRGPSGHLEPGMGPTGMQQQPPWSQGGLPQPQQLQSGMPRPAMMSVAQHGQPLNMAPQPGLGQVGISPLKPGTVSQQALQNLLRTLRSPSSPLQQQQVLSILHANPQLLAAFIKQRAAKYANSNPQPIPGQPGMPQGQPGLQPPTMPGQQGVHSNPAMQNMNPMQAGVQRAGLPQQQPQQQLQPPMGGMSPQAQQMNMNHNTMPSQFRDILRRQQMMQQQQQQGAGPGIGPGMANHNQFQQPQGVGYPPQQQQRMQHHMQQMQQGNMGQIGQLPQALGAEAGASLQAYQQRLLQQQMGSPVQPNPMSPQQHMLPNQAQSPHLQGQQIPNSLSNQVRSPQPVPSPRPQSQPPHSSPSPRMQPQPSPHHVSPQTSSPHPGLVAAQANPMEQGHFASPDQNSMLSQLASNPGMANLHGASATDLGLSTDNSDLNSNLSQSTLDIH

COc1nnc2ccc(N3CCC(c4ccc(OCCN5CCN(C)C(=O)[C@H]5C)cc4)CC3)nn12 [AZD-5153]
Ki [1]: 0.00501 µM | IC50 [2]: 0.02 µM | IC50 [3]: 0.0251 µM | IC50 [4]: 0.0126 µM | GI50 (MM1.S): 0.00501 µM | logD [5]: 2.3 | solubility thermodynamic [6]: 1600 to 1650 µM (≈ 767 to 791 µg/mL) | hepatocyte CLint [7]: 3.5 to 4 µL/min/1e6 cells | Papp A→B [8]: 40 ×10⁻⁶ cm/s | fraction unbound [9]: 0.04 | fraction unbound [10]: 0.24 | fraction unbound [11]: 0.23 | hepatocyte CLint [12]: < 1 µL/min/1e6 cells | hepatocyte CLint [13]: 5 µL/min/1e6 cells | Ki [14]: 1.26 µM | clearance [15]: 4 mL/min/kg | Vd [16]: 0.9 L/kg | bioavailability [17]: 81% | clearance [18]: 6 mL/min/kg | Vd [19]: 0.4 L/kg | bioavailability [20]: 55% | Cp(f) (Mus musculus): <0.2 µM | inhibition in vivo at 10 mg/kg (MV4-11): > 100% | Activity [21]: 8% | Stability [22]: Stable | Ki [23]: 0.1 µM | Ki [24]: 0.0631 µM | Ki [25]: 0.0501 µM | Ki [26]: 0.1 µM | Ki [27]: 0.126 µM | Ki [28]: 0.251 µM | Ki [29]: 0.501 µM | Ki [30]: 0.398 µM | Ki [31]: 2.51 µM | Ki (CREB-binding protein): 6.31 µM | Ki [32]: < 10 µM | Ki [33]: 2.51 µM | Ki [34]: 0.158 µM | Ki [35]: 0.126 µM
